Experimental data taken from article PMC4393181, “The Chemopotential Effect of Annona muricata Leaves against Azoxymethane-Induced Colonic Aberrant Crypt Foci in Rats and the Apoptotic Effect of Acetogenin Annomuricin E in HT-29 Cells: A Bioassay-Guided Approach” (PLoS ONE, 2015).
≈ marks a conversion by molar mass, not a printed value. Read-outs that look alike come from different tables or passages of the source.

Key:
Bax [1] = test: Immunofluorescence analysis of Bax; type: cell-based, human; conditions: HT-29, IC50 concentration, 48 h
Experimental: (§1) The perturbation in the protein expressions of Bcl-2 and Bax was investigated using immunofluorescence analysis as previously described in detail. […] After washing the cells twice with PBS, they were fixed in 4% paraformaldehyde at 25°C for 20 min prior to blocking with blocking buffer (0.03% Triton X-100/PBS and normal serum) for 1 h. The cells were then supplemented with a primary antibody solution and incubated overnight at 4°C. After incubation, the cells were treated with Bcl-2 and Bax flurochrome-conjugated secondary antibody (Santa Cruz Biotechnology, Santa Cruz, CA, USA) for 1 h. The cells were then washed twice with PBS prior to staining with DAPI. The stained cells were examined using the Cell Reporter cytofluorimeter system.

Bcl-2 [2] = test: Immunofluorescence analysis of Bcl-2; type: cell-based, human; conditions: HT-29, IC50 concentration, 12, 24 and 48 h, compared with control
Experimental: as §1

[3] = system: CCD841 (normal human colon epithelial cells); test: MTT assay on CCD841 cells; type: cell-based; conditions: mean ± SEM of three experiments
Experimental: (§2) CCD841 (normal human colon epithelial cells) and HT-29 (human colon cancer cells) were purchased from the American Type Cell Collection (ATCC, Manassas, VA, USA). The cells were maintained at 37°C in a humidified atmosphere of 5% CO2. The culture medium consisted of Dulbecco’s Modified Eagles medium (Sigma) that was supplemented with 10% Fetal Bovine Serum (PAA Laboratories, Pasching, […]), 100 μg/ml streptomycin (Sigma) and 100 U/ml penicillin (Sigma). The untreated medium containing 0.1% vehicle DMSO was applied as the negative control for all of the assays in the in vitro study.
(§3) Cell viability analysis was performed using the MTT assay as described previously. In brief, cells (5 × 10^4 cells/ml) at the exponential phase of growth were seeded in a 96-well plate and treated with serial concentrations of the tested agent (0.62, 1.25, 2.5, 5, 10, 20, 40 and 80 μg/ml) for 12, 24 and 48 h. 5-FU, a standard anticancer drug, was used as a positive control in this assay. After incubation, 20 μl of the MTT solution (5.0 mg/ml, Sigma) was loaded into each well, and the cells were further incubated at 37°C for 4 h. DMSO (150 μl) was then used to dissolve the formazan crystals. The cytotoxicity against cancer and normal cells was measured at the absorbance of 570 nm using an ELISA reader (Asys UVM340, Eugendorf, Austria). The data were then processed, and the antiproliferative potential of the tested agents was expressed as IC50 values, the concentration that causes a 50% inhibition of cell growth.

Bcl-2 [4] = test: Q-PCR gene expression analysis of Bcl-2; type: cell-based, human; conditions: HT-29, IC50 concentration, 12 to 48 h
Experimental: (§4) The mRNA expression of two proteins, Bcl-2 and Bax, was quantified using real-time Q-PCR analysis as described previously with some modifications. […] The total RNA of treated cells was isolated using the RNeasy Plus Mini kit (Qiagen, Hilden, Germany) followed by the synthesis of the complementary DNA using the iScript cDNA synthesis kit (Biorad, Hercules, CA, USA). Q-PCR was performed on the StepOne PLUS real-time PCR machine (Applied Biosystems, Carlsbad, CA, USA). The β-actin housekeeping gene was used as a positive reference and was applied to normalize the target mRNA. The Q-PCR master mix was provided by Solaris Q-PCR Expression Assays (Thermo Fisher Scientific, Waltham, MA, USA) for the gene expression analysis of Bcl-2, AX-003307-00-0100; Bax, AX-003308-00-0100; and β-actin, AX-003451-00-0100.

caspase 9 = test: Caspase-Glo 9 luminescence assay; type: cell-based, human; conditions: HT-29, IC50 concentration, 12 to 48 h, vs control
Experimental: (§5) A luminescence-based analysis was performed to investigate the activity of caspase 3/7 and caspase 9 using the Caspase-Glo 9 Assay and Caspase-Glo 3/7 Assay commercial kits (Promega Corporation, Fitchburg, WI, USA) as described previously. […] After incubation, 100 μl of the caspase-Glo reagent was added to each well according to the manufacturer’s protocol. Luminescence, which represents the caspase activities, was measured using a luminescence microplate reader (Tecan Infinite 200 Pro).

Bax [5] = test: Q-PCR gene expression analysis of Bax; type: cell-based, human; conditions: HT-29, IC50 concentration, 48 h, normalized to β-actin
Experimental: as §4

HT-29 cells [6] = test: Annexin V-FITC/PI detection of early and late apoptosis; type: cell-based, human; conditions: HT-29, IC50 concentration
Experimental: Flow cytometric analysis was performed to quantify early and late apoptosis in treated HT-29 cells using the commercial BD Pharmingen Annexin V-FITC Apoptosis Detection kit (APOAlert Annexin V; Clontech, Mountain View, CA, USA). […] After incubation, the treated cells were harvested, washed twice with PBS and suspended in the Annexin-V binding buffer. The cells were then supplemented with Annexin-V-FITC and PI, according to the vendor’s instructions. The stained cells were examined using a BD FACSCanto II flow cytometer. Early and late apoptotic cells and necrotic cells were quantitatively detected using a quadrant statistics analysis.

HT-29 cells [7] = test: Cell cycle assay (PI staining, flow cytometry); type: cell-based, human; conditions: HT-29, IC50 concentration
Experimental: To determine the effect of annomuricin E on the cell cycle distribution, flow cytometric analysis was performed as described previously. […] After incubation, the treated HT-29 cells were harvested, washed twice with ice-cold PBS and fixed overnight at 4°C with 90% ethanol. The following day, the cells were washed and stained with propidium iodide (PI, 100 μl, 1 mg/ml). The cellular RNA was degraded using the enzyme RNAse A (200 μg/ml, Sigma). The stained cells were instantly examined using a BD FACSCanto II flow cytometer (BD Biosciences, San Jose, CA, USA) by analyzing 10,000 cells per sample. The data were processed using ModFit LT software (Verity Software House, Inc., Topsham, ME, USA).

[8] = system: HT-29 (human colon cancer cells); test: MTT assay on HT-29 cells; type: cell-based; conditions: mean ± SEM of three experiments
Experimental: as §2, §3

HT-29 cells [9] = test: LDH release assay; type: cell-based, human; conditions: HT-29, 24 h, compared with 0.1% DMSO control
Experimental: To further confirm the cytotoxic effects of annomuricin E on HT-29 cells, the LDH release assay was performed using the Pierce LDH Cytotoxicity Assay Kit (Thermo Scientific, Pittsburgh, PA, USA) as previously described. Briefly, HT-29 cells at the exponential phase of growth were treated with different concentrations of annomuricin E and Triton X-100 (positive control) for 24 h. After the incubation, the treated HT-29 cells were exposed to the LDH reaction solution (100 μl) for 30 min. The red color intensity, representing the level of released LDH, was then measured at 490 nm using the Tecan Infinite 200 Pro (Tecan, Männedorf, Switzerland) microplate reader. The result of LDH release was calculated as a percentage of the positive control.

caspase 3/7 = test: Caspase-Glo 3/7 luminescence assay; type: cell-based, human; conditions: HT-29, IC50 concentration, 12 to 48 h, vs control
Experimental: as §5

HT-29 cells [10] = test: Multiple cytotoxicity assay (Cellomics Multiparameter Cytotoxicity 3 Kit); type: cell-based, human
Experimental: The simultaneous analysis of critical apoptosis markers, namely cell membrane permeability, cytochrome c leakage from the mitochondria, mitochondrial membrane potential (MMP) and total nuclear intensity, in HT-29 cells was performed using the Cellomics Multiparameter Cytotoxicity 3 Kit (Cellomics, Pittsburgh, PA, USA) as previously described in detail. […] After incubation, the treated cells were stained with a cell permeability dye (FITC), a cytochrome c dye (Cy3), a mitochondrial membrane potential dye (Cy5) and a nuclear dye (Hoechst 33342), according to the vendor’s protocol. The plates were analyzed using a Cell Reporter cytofluorimeter system (Gentix/Molecular Devices, United Kingdom).

AOM-induced colonic ACF = test: Counting of AOM-induced colonic aberrant crypt foci (methylene blue staining); type: in vivo, Sprague Dawley rats; conditions: group E
Experimental: The experiment was performed as previously described in detail. Thirty male rats (n = 6 per group) in five groups (negative control, cancer control, low dose of EEAML, high dose of EEAML and treatment control) were subcutaneously injected once a week for two consecutive weeks according to the “Induction” column in Table 1. Then, all of the rodents were orally fed once a day for two months based on the experimental design (Table 1), except for the treatment control group, which was intra-peritoneally injected with 35 mg/kg of 5-FU (Sigma, St. Louis, MO, USA) for five consecutive days. The condition of the animals was observed every morning throughout the experimental period.
To determine the intensity of colonic ACF formation after 10 weeks of injection with AOM, ACF counting was performed as previously described in detail. In brief, rats were anesthetized with a high dose of ketamine (30 mg/kg, 100 mg/mL) and xylazine (3 mg/kg, 100 mg/mL) under aseptic conditions. The excised colon was flushed with phosphate buffered saline (PBS, Sigma), opened longitudinally and fixed flat between filter papers overnight at 4°C using 10% buffered formalin. Equal lengths of the proximal and distal portions of the fixed colons were stained with 0.5% methylene blue solution. After washing away the excess stain, topographic analysis was performed under a light microscope (Nikon, Tokyo, Japan) to score the total number of ACF, as well as the number of crypts per focus.

Bax [11] = test: Immunohistochemistry of colon tissue sections for Bax; type: in vivo, Sprague Dawley rats; conditions: AOM-induced rats; EEAML both doses (250 and 500 mg/kg), 5-FU 35 mg/kg
Experimental: (§6) Immunohistochemical evaluation of proliferating cell nuclear antigen (PCNA), Bax and Bcl-2 proteins was performed on deparaffinized tissue sections using the commercial Dako ARK Peroxidase kit (DAKO, Carpinteria, CA, USA) according to the vendor’s instructions. In brief, the antigen retrieval process of tissue sections was performed using 10 mM citrate buffer (pH 6.0); the tissue sections were then washed with PBS and blocked with peroxidase blocking buffer. Next, the tissue sections were incubated with diluted mouse PCNA (1:100, Cat: ab2426), Bax (1:100, Cat: ab7977) and Bcl-2 (1:100, Cat: ab7973) antibodies (Abcam, Cambridge, MA, USA) for 15 min. All of the slides were then incubated with the appropriate amount of streptavidin-HRP for 30 min at room temperature. The slides were developed with a diaminobenzidine (DAB) substrate-chromogen system and were counterstained in hematoxylin. The measurement of the PCNA labeling index (PI) was calculated using the formula below.

Bcl-2 [12] = test: Immunohistochemistry of colon tissue sections for Bcl-2; type: in vivo, Sprague Dawley rats; conditions: AOM-induced rats; EEAML both doses (250 and 500 mg/kg), 5-FU 35 mg/kg
Experimental: as §6

PCNA = test: Immunohistochemistry of colon tissue sections, PCNA labeling index; type: in vivo, Sprague Dawley rats; conditions: 5-FU 35 mg/kg, colon tissue of AOM-induced rats (cancer control PI 81%, negative control 4%)
Experimental: as §6
PI = number of positive cells/total number of epithelial cells ×100

[13] = 5-FU 35 mg/kg intra-peritoneally for five consecutive days, AOM-induced rats

annomuricin E
Bax protein expression (FITC fluorescent intensity), increase relative to control (Bax [1]): approximately 10 fold | Bcl-2 protein expression (Bcl-2 [2]): significantly and dose-dependently reduced | IC50 ([3]; CCD841, 12 h): 64.32 ± 3.76 µg/mL | IC50 ([3]; CCD841, 24 h): 47.10 ± 0.47 µg/mL | IC50 ([3]; CCD841, 48 h): 32.51 ± 1.18 µg/mL | Bcl-2 mRNA expression (Bcl-2 [4]): time-dependently reduced | Caspase 9 activity (caspase 9): significantly elevated | Bax mRNA expression, increase relative to control (Bax [5]): approximately 5 fold | Percentage of late apoptotic cells (Annexin V+/PI+) (HT-29 cells [6]; 12 h (control 0.5%)): 6.9% | Percentage of early apoptotic cells (Annexin V+/PI-) (HT-29 cells [6]; 12 h (control 3.6%)): 13.9% | Percentage of early apoptotic cells (Annexin V+/PI-) (HT-29 cells [6]; 24 h (peak)): 27.3% | Percentage of late apoptotic cells (Annexin V+/PI+) (HT-29 cells [6]; 24 h (peak)): 13.6% | Percentage of cells arrested at the G1 phase (HT-29 cells [7]; 24 h): 89.65% | Percentage of cells arrested at the G1 phase (HT-29 cells [7]; 48 h): 94.60% | IC50 ([8]; HT-29, 12 h): 5.72 ± 0.41 µg/mL | IC50 ([8]; HT-29, 24 h): 3.49 ± 0.22 µg/mL | IC50 ([8]; HT-29, 48 h): 1.62 ± 0.24 µg/mL | Lowest concentration with significant LDH leakage (HT-29 cells [9]): 4 µg/mL | Caspase 3/7 activity (caspase 3/7): significantly elevated | Total nuclear intensity (HT-29 cells [10]; HT-29, IC50 concentration, 12, 24 and 48 h): significantly elevated | Mitochondrial membrane potential (MMP) (HT-29 cells [10]; HT-29, IC50 concentration, 12 h): significant collapse | Cytochrome c leakage from the mitochondria (HT-29 cells [10]; HT-29, IC50 concentration, from 12 h, time-dependent): increase in cytochrome c leakage | Cell membrane permeability (HT-29 cells [10]; HT-29, IC50 concentration, only 24 and 48 h): significantly increased

O=c1[nH]cc(F)c(=O)[nH]1 [5-FU, 5-fluorouracil]
No. of crypts per ACF: 1 crypt (AOM-induced colonic ACF; [13]): 12 ± 0.26 | No. of crypts per ACF: 2 crypt (AOM-induced colonic ACF; [13]): 6 ± 0.45 | No. of crypts per ACF: 3 crypt (AOM-induced colonic ACF; [13]): 7 ± 0.78 | No. of crypts per ACF: 4 crypt and more (AOM-induced colonic ACF; [13]): 4 ± 0.18 | Total ACF (AOM-induced colonic ACF; [13]): 29 ± 1.40 | Inhibition of ACF formation (AOM-induced colonic ACF; 5-FU 35 mg/kg intra-peritoneally, compared with cancer control): 79.5% | IC50 ([3]; Homo sapiens, CCD-841, CCD841, 12 h, read-out: IC50): 58.5 ± 2.09 µg/mL (≈ 450 µM) | IC50 ([3]; Homo sapiens, CCD-841, CCD841, 24 h, read-out: IC50): 44.4 ± 2.25 µg/mL (≈ 341 µM) | IC50 ([3]; Homo sapiens, CCD-841, CCD841, 48 h, read-out: IC50): 36.3 ± 0.43 µg/mL (≈ 279 µM) | Bax expression in colon tissues (Bax [11]): up-regulation | Bcl-2 expression in colon tissues (Bcl-2 [12]): down-regulation | IC50 ([8]; Homo sapiens, HT-29, 12 h, read-out: IC50): 4.85 ± 0.38 µg/mL (≈ 37.3 µM) | IC50 ([8]; Homo sapiens, HT-29, 24 h, read-out: IC50): 2.96 ± 0.43 µg/mL (≈ 22.8 µM) | IC50 ([8]; Homo sapiens, HT-29, 48 h, read-out: IC50): 1.5 ± 0.17 µg/mL (≈ 11.5 µM) | PCNA labeling index (PI) (PCNA): 24%
